# Source: patent US20070093461A1, “Effect of Loteprednol etabonate on vascular dysfunction” (Bausch & Lomb Incorporated, priority 2005, published 2007)
# “Also recorded” adds a separate entry of the source.
# Experiments:
# Format in all cases: cell-based, human
# VEGF = test: ELISA for VEGF in supernatants of LE-treated HREC; conditions: LE 0, 10, 25 & 50 μM, 3 days
# Procedure: (§1) HREC were treated with LE (10, 25 and 50 μM) for 3 days. Supernatants were removed and microcentrifuge (Beckman Microfuge R) 1000 RPM for 10 min (4° C. after which they were stored at −70° C. until needed. ELISA kits (R&D systems) for human vascular endothelial growth factor (VEGF), soluble intracellular adhesion molecule (sICAM-1) and soluble vascular cell adhesion molecule (sVCAM-1) were used according to the manufacturer's instructions.
# sVCAM-1 = test: ELISA for sVCAM-1 in supernatants of LE-treated HREC; conditions: HREC with or without LPS activation; LE 0, 10, 25 & 50 μM, 3 days; p≦0.05 (FIG. 2A)
# Procedure: as §1
# sICAM-1 = test: ELISA for sICAM-1 in supernatants of LE-treated HREC; conditions: HREC with or without LPS activation; LE 0, 10, 25 & 50 μM, 3 days; p≦0.05 (FIG. 2B)
# Procedure: as §1
# HREC = test: Cellular toxicity in LE-treated HREC; conditions: highest concentration of LE tested (50 μM)
# ZO-1 = test: Immunohistochemistry of tight junction protein ZO-1 in VEGF-treated HREC; conditions: LE 10 & 50 μM for 1 hour, then VEGF 20 ng/ml for 1 hour, listed as LE
# Procedure: Human retina endothelial cells were seeded onto an 8-well glass chamber and allowed to become 80-90% confluent. Cells were treated with or without LE for 1 hour and then treated with VEGF (20 ng/ml) for 1 hour. HREC were immediately fixed and stained with specific antibodies to occludin and zonula occluden-1 (Zymed). FITC-conjugated secondary antibodies (R&D Systems) were used to visualize tight junction distribution/integrity.
# occludin = test: Western blot analysis of occludin in cell lysates; conditions: LE 0, 10 & 50 μM; daily administration for 3 days necessary to maintain effect
# Procedure: Cells were treated with LE (0, 10 & 50 μM) for either 3 days or LE (0, 10 & 50 μM) was replenished everyday for 3 days. Cells were lysed and protein levels determined/adjusted (see above). SDS PAGE was performed on cell lysates and then separated proteins were transferred on to a nitrocellulose (NC) paper (Invitrogen). NC paper was blocked with 3% non-fat milk in phosphate buffered saline (PBS) for 1 hour and then probed with specific anti bodies to occludin (Rabbit anti-occludin polyclonal and monoclonal antibodies, Zymed); Goat anti-occludin (Santa Cruz). NC paper was then incubated with secondary horseradish peroxidase conjugated antibody for 1 hour and the bands were visualized using DAB (3,3′-diaminobenzidine) (Vector Laboratories) or cheminluminescence (SuperSignal West Dura, Pierce).
smiles,measurement,setting,value
CCOC(=O)O[C@]1(C(=O)OCCl)CC[C@H]2[C@@H]3CCC4=CC(=O)C=C[C@]4(C)[C@H]3[C@@H](O)C[C@@]21C [Loteprednol etabonate],expression of VEGF,"VEGF; HREC with LPS activation, p≦0.01 (FIG. 1A)",significantly down regulated
same,expression of VEGF,"VEGF; HREC without LPS activation, p≦0.01 (FIG. 1B)",significantly down regulated
same,expression of sVCAM-1,sVCAM-1,significantly down regulated
same,expression of sICAM-1,sICAM-1,significantly down regulated
same,cellular toxicity,HREC,no apparent cellular toxicity
same,effect on VEGF-induced disruption/redistribution of ZO-1 (tight junction),ZO-1,reversed the effect of VEGF tight junction disruption; also recorded: inhibited the effect of VEGF-induced disruption of ZO-1
same,total content of occludin,occludin,increased
